This passage reports IC50 results from patent publication US20090062401A1, “DECALINE-DERIVED COMPOUNDS AS […] ACTIVE AGENTS” (UNIVERSITAT DORTMUND, priority 2004, published 2009).

Like-named read-outs stand apart in the source and are kept apart here.

By IC50 is commonly meant the concentration that gives 50% inhibition.

One assay has as its target 11beta-HSD1 (Homo sapiens, UniProt P28845). Description: biochemical. The following applies: read-out: IC50 Target 11beta-HSD1. The text has this:
(§1) Assay protocols for Cdc25A, 11βHSD1, 11βHSD2, and AChE are described in detain in the publication of Koch M A, Wittenberg L O, Basu S, Jeyaraj D A, Gourzoulidou E, Reinecke K, Odermatt A, Waldmann H (Proc. Natl. Acad. Sci. U.S.A. 2004 Nov. 30; 101(48):16721-6) and in Koch M A et al., Proc. Natl. Acad. Sci. U.S.A. 2005 Nov. 29; 102 (48):17272-7.

A further assay has as its target T1, 11beta-HSD2 (Homo sapiens, UniProt P80365).
T1 sequence (P80365 1-405): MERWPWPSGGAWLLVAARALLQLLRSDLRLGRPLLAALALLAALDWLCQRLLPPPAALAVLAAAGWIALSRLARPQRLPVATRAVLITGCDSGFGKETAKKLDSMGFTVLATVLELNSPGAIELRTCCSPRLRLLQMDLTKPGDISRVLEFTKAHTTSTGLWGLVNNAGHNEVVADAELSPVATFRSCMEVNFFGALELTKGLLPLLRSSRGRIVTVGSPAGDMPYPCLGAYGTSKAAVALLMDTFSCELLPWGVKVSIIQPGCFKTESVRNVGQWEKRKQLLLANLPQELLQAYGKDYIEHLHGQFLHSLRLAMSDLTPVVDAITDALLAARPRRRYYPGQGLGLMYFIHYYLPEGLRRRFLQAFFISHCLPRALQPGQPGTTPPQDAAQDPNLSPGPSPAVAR
Description: 11beta-HSD2 inhibition. In kind it is biochemical. Conditions: read-out: IC50 Target 11beta-HSD2.
Text: as §1

The target of another assay is VHR (Homo sapiens, UniProt P51452). Description: VHR phosphatase inhibition, general phosphatase assay using para-nitrophenylphosphate. Conditions: read-out: IC50 Target VHR. In kind it is biochemical. The text has this: (§2) Assays protocols for the other enzymes mentioned herein (MtPTPA, PP1, VHR, PTP1B) are disclosed in Schweizer R A S, Atanasov, G A, Frey B M, and Odermatt A, Mol. Cell. Endocrinol. 2003, 212, 41-49 and Barratte, B., Meijer L., Galaktionov K. & Beach D, Anticancer Res. 1992, 12, 873-880. For determination of the phosphatase activity, a general phosphatase assay using para-nitrophenylphosphate was applied.
Chain of VHR (P51452 whole entry, species assumed): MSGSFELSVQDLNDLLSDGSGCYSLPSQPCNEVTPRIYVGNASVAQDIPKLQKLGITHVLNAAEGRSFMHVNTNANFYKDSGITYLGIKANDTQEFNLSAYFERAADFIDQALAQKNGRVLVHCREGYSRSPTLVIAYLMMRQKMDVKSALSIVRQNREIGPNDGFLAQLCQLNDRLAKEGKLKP

In the next assay the target is PP1. Description: PP1 phosphatase inhibition, general phosphatase assay using para-nitrophenylphosphate. The format is biochemical. Conditions: read-out: IC50 Target PP1.
Text: as §2

The target of another assay is MPTPA (Mycobacterium tuberculosis, UniProt P9WIA1). Description: MtPTPA phosphatase inhibition, general phosphatase assay using para-nitrophenylphosphate. In kind it is biochemical.
Chain of MPTPA (P9WIA1 whole entry): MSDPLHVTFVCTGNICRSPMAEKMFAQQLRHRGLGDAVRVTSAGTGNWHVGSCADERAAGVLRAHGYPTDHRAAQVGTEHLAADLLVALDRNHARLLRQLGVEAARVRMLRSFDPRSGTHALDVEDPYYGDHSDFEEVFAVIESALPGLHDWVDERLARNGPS
Text: as §2

In a further assay the target is T2, PTP1B (Homo sapiens, UniProt P18031).
T2 sequence (P18031 1-435): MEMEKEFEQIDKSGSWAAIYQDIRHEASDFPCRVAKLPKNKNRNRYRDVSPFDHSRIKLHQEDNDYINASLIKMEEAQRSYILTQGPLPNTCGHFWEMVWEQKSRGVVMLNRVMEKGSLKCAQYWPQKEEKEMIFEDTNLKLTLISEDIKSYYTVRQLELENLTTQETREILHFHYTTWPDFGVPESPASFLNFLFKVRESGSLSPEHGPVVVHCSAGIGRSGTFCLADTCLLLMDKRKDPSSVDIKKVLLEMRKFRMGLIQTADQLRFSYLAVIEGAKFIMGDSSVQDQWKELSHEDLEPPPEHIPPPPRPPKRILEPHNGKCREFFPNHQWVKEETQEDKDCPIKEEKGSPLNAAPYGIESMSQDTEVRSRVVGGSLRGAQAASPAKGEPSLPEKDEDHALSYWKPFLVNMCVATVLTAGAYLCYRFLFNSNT
Description: PTP1B phosphatase inhibition, general phosphatase assay using para-nitrophenylphosphate. The format is biochemical. The following applies: read-out: IC50 Target PTP1B.
Text: as §2

Another assay concerns the target T3, Cdc25A (Homo sapiens, UniProt P30304).
T3 sequence (P30304 1-524): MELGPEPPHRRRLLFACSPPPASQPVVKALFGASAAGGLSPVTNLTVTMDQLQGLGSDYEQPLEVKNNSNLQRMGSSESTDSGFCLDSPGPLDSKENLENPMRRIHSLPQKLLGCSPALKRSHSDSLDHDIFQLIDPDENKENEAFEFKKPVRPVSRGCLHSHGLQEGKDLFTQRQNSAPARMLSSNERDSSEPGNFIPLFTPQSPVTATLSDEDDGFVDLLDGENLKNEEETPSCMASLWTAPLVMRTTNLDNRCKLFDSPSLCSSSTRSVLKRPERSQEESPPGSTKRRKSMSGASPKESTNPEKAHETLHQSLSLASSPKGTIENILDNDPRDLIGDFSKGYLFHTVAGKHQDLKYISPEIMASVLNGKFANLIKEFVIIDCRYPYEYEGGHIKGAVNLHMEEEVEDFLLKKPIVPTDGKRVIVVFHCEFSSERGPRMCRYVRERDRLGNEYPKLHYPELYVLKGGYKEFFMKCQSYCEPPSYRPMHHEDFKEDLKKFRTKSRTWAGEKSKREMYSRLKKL
In words: Cdc25A phosphatase inhibition. The format is biochemical. The following applies: read-out: IC50 Target Cdc25A.
Text: as §1

The next assay concerns the target AChE (Homo sapiens, UniProt P22303). In words: Acetylcholinesterase inhibition. The format is biochemical.
Text: as §1

Chain of 11beta-HSD1 (P28845 whole entry): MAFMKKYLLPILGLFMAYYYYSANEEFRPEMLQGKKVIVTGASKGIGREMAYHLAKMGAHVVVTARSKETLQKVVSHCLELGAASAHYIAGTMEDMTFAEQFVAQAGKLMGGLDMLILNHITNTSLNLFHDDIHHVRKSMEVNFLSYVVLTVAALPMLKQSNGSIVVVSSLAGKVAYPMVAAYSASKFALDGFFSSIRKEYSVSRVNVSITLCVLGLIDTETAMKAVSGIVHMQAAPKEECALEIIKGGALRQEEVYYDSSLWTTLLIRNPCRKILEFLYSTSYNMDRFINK
Chain of AChE (P22303 32-614): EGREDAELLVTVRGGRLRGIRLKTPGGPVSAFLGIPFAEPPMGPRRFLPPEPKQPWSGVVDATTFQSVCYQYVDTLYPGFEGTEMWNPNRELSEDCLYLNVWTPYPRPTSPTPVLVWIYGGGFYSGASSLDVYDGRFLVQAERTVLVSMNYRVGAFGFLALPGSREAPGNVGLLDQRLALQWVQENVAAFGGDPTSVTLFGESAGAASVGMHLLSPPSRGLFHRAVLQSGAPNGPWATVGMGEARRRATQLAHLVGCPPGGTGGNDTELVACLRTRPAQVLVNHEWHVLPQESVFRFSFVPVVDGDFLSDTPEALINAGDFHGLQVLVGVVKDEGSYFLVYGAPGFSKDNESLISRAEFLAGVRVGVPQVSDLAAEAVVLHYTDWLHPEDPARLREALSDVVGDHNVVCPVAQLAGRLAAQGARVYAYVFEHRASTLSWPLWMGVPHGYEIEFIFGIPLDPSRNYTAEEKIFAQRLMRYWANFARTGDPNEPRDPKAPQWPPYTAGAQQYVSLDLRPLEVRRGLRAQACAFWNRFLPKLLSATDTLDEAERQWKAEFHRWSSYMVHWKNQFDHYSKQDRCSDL

Take `CCc1cc(OC)ccc1/C=C1\C[C@@]2(C)C(=C(C)C1=O)CCC[C@@H]2O` [Compound 15, (3E,4aS,5S)-3-(2-Ethyl-4-methoxybenzyliden)-4,4a,5,6,7,8-hexahydro-5-hydroxy-1,4a-dimethylnaphthalen-2(3H)-one]: the IC50 is less than 10 µM at 11beta-HSD1 and 10 to 50 µM at 11beta-HSD2.
For `O=C1C(=Cc2ccco2)CCC2CC=CCC12` (stereo not shown) [Compound 403, 2-Furan-2-ylmethylene-3,4,4a,5,8,8a-hexahydro-2H-naphthalen-1-one], the IC50 at 11beta-HSD1 and on 11beta-HSD2 was less than 10 µM throughout.
Regarding `CC1=C2CC/C(=C\c3ccco3)C(=O)[C@@]2(C)CCC1O` (stereo partly drawn) [Compound 25, (2E,8aS)-2-[(Furan-2-yl)methylen]-3,4,6,7,8,8a-hexahydro-6-hydroxy-5,8a-dimethylnaphthalen-1(2H)-one], the IC50 at VHR, on PP1 and on MPTPA (read-out: IC50 Target MPTPA) was 10 to 50 µM each time.
As to `CC(=O)Oc1cccc(/C=C2\C[C@@]3(C)C(=C(C)C2=O)CCC[C@@H]3O)c1` [Compound 26, 3-{(1E)-[(4S,4aS)-1,2,3,4,4a,5-Hexahydro-4-hydroxy-4a,8-dimethyl-7-oxonaphthalen-6(7H)-yliden]methyl}phenylacetat], the half-maximal inhibitory concentration (IC50) at VHR is 10 to 50 µM; at PTP1B it was 10 to 50 µM; at PP1 it was 10 to 50 µM; on 11beta-HSD1, less than 10 µM.
For `CCC/C=C1\C[C@@]2(C)C(=C(C)C1=O)CCC[C@@H]2O` [Compound 32, (3E,4aS,5S)-3-Butyliden-4,4a,5,6,7,8-hexahydro-5-hydroxy-1,4a-dimethylnaphthalen-2(3H)-one], the concentration for half-maximal inhibition (IC50) was less than 10 µM at VHR; 10 to 50 µM on PTP1B; 10 to 50 µM at Cdc25A; 10 to 50 µM at PP1; less than 10 µM against MPTPA; less than 10 µM at 11beta-HSD1. Also, the concentration for half-maximal inhibition (IC50) on 11beta-HSD2 and against AChE was less than 10 µM in each case.
As to `CC1=C2CCC[C@H](O)[C@@]2(C)C/C(=C\c2cc(Cl)cs2)C1=O` [Compound 12, (3E,4aS,5S)-3-[(4-Chlorthiophen-2-yl)methylen]-4,4a,5,6,7,8-hexahydro-5-hydroxy-1,4a-dimethylnaphthalen-2(3H)-one], the IC50 was 10 to 50 µM at PTP1B, 10 to 50 µM on PP1 and less than 10 µM on 11beta-HSD1.
For the compound `C/C=C/C=C1\C[C@@]2(C)C(=C(C)C1=O)CCC[C@@H]2O` [Compound 29, (3E,4aS,5S)-3-[(E)-But-2-enyliden]-4,4a,5,6,7,8-hexahydro-5-hydroxy-1,4a-dimethylnaphthalen-2(3H)-one], the IC50 on PTP1B was less than 10 µM; on Cdc25A, 10 to 50 µM; on 11beta-HSD1, less than 10 µM; at 11beta-HSD2 it was less than 10 µM; at AChE it was less than 10 µM.
In the case of `CC1=C2CC(c3ccccc3)CC(O)C2CCC1=O` (stereo not shown) [Compound 167, 5-Hydroxy-1-methyl-7-phenyl-4,4a,5,6,7,8,-hexahydro-3H-naphthalen-2-one], the IC50 at AChE (read-out: IC50 Target AChE) is less than 10 µM.
Consider `CC1=C2CCCC(O)C2(C)CC(=Cc2ccc(C#CCCCC#N)cc2)C1=O` [Compound 47, 6-{4-{(1E)-[(43,4aS)-1,2,3,4,4a,5-Hexahydro-4-hydroxy-4a,8-dimethyl-7-oxonaphthalen-6(7H)-yliden]-methyl}phenyl}hex-5-in-nitril], for which the IC50 on VHR is 10 to 50 µM; on PTP1B it was 10 to 50 µM; at Cdc25A, 10 to 50 µM; on PP1, less than 10 µM.
As to `CC(=O)Oc1ccc(/C=C2\C[C@@]3(C)C(=C(C)C2=O)CCC[C@@H]3O)cc1` [Compound 31, 4-{(1E)-[(4S,4aS)-1,2,3,4,4a,5-Hexahydro-4-hydroxy-4a,8-dimethyl-7-oxonaphthalen-6(7H)-yliden]methyl}phenylacetat], the IC50 was 10 to 50 µM at PTP1B, less than 10 µM at 11beta-HSD1, 10 to 50 µM on 11beta-HSD2 and less than 10 µM at AChE (read-out: IC50 Target AChE).
For `CC1=C2CCC[C@H](O)[C@@]2(C)C/C(=C\c2cc3ccccc3o2)C1=O` [Compound 4, (3E,4aS,5S)-3-[(Benzofuran-2-yl)methylen]-4,4a,5,6,7,8-hexahydro-5-hydroxy-1,4a-dimethyl-naphthalen-2(3H)-one], the concentration for half-maximal inhibition (IC50) is 10 to 50 µM on PTP1B, 10 to 50 µM on Cdc25A, 10 to 50 µM at PP1 and less than 10 µM on 11beta-HSD1.
